Test results taken from patent EP4371976B1, “IONIZABLE LIPIDS AND LIPID NANOPARTICLES CONTAINING THEREOF” (Certest Biotec, S.L., priority 2022, dated 2024).

Experiments:
Female BALB/c mice = test: Firefly luciferase expression (total flux, IVIS imaging) in mice after injection of mRNA-loaded LNPs; type: in vivo; conditions: for Total Flux: Table 8, mice, intramuscular, 5 µg luciferase mRNA in 50 µl, LNP 50:10:38.5:1.5
Description: For in vivo administration, mRNA comprising in the 5' to 3' direction a sequence encoding for luciferase of SEQ ID NO:1, was encapsulated into LNPs following the procedure described in Hassett, K. J. et al., "Optimization of Lipid Nanoparticles for Intramuscular Administration of mRNA Vaccines", 2019, Mol. Ther. Nucleic Acid, vol. 15, pp. 1-11. Briefly, the purified mRNAs were first diluted in sodium citrate buffer at pH=4 at a final concentration of 266 µg/ml. Separately, a mixture of the ionizable lipid of the invention:DSPC (Merk 850365P):cholesterol (Sigma C3045):DMG-PEG2000 (Cayman 33945-1) were dissolved into ethanol at the respective molar percentages of 50:10:38.5:1.5, and with a lipid-nitrogen-to-phosphate ratio (N:P) ratio of 5,5:1.
The mRNA aqueous solution was then carefully added to the ethanol solution, and the resulted solution was homogenized by pipetting up and down for 4-5 times. The resulting LNPs were immediately diluted 1:1 with Tris buffer and dialyzed overnight against Tris buffer containing 15% sucrose. The resulting LNP solution was then collected, and the encapsulated mRNA was assessed by Quant-IT® Ribogreen (Invitrogen R11490) following the manufacturer's instructions.
Female BALB/c mice (Charles River Laboratories), 8-10-week-old, weighting 18-23 g, were acclimatized to new conditions upon arrival to experimental facilities for 3-7 days. Housing conditions were room temperature 20-24 °C, humidity 50-70 %, and light intensity 60 lux with a light-dark cycle of 12 hours.
For Firefly Luciferase activity measurement in mice, LNPs produced as indicated above (ionizable lipid:helper lipid: sterol:PEG-modified lipid → 50:10:38.5:1.5) and containing 5 µg of the indicated mRNA in 50 µl final volume, were injected intramuscularly.
From 4 to 72 hours after RNA-LPN inoculation mice were anaesthetized by inhalation with 4% of isoflurane using a vaporizer. The maintenance of the anaesthesia was performed at 1.5% of isoflurane. Then, D-luciferin (Quimigen, 12507) was injected intraperitoneally at 150 mg/kg, normally ~200 µL of the stock at 15 mg/mL in PBS for a 20 g mouse. Luciferase images were acquired 10 minutes after luciferin inoculation using the IVIS Lumina XRMS Imaging System following manufacturer's instructions.

[1] = RNA encapsulation efficiency of LNPs by Quant-IT Ribogreen; type: physicochemical; conditions: for Encaps. efficiency (%): LNPs with luciferase mRNA, ionizable lipid:non-cationic lipid:sterol:PEG-modified lipid 50:10:38.5:1.5, percentage of RNA entrapped in the LNP; for Encaps. efficiency: Table 8, LNP 50:10:38.5:1.5, luciferase mRNA
Outline: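 LNPs formed by mixing aqueous mRNA into ethanol lipid solution, diluted 1:1 in Tris, dialysed overnight against Tris with 15% sucrose. Encapsulated mRNA measured by Ribogreen fluorescence per kit protocol; LNPs adjusted to 100 µg/ml final mRNA.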

[2] = Size distribution, polydispersity and Z-potential of LNPs by dynamic light scattering (Malvern Zetasizer); type: physicochemical; conditions: LNPs, standard formulation 50:10:38.5:1.5; DLS
Description: The LNP solution was then adjusted to a final concentration of mRNA of 100 µg/ml. Size distribution, polydispersity and Z-potential were measured by dynamic light scattering (DLS) using Malvern Zetasizer Advance Lab Blue Label. RNA encapsulation was assessed by Quant-IT® Ribogreen following the manufacturer's instructions.

[3] = Apparent pKa of LNPs comprising the ionizable lipid (Table 6); conditions: standard formulation 50:10:38.5:1.5

| Encaps. efficiency (%) [1] [%] | Encaps. efficiency [1] [%] | P.D.I. [2] | Particle size/ Ø (nm) [2] [nm] | Z Potential (± D.E.) [mV] [2] [mV] | Apparent pKa [3] | Compound | Total Flux (Female BALB/c mice) [p·s^-1] | protein expression in mice (transfection results) (Female BALB/c mice; Figure 1 legend, LNPs containing RNA) |
| --- | --- | --- | --- | --- | --- | --- | --- | --- |
| 43.65 | 43.65 | 0.11 | 140.3 | -8.47 | – | CCCCCCCCCCCCCOC(=O)CCSCC(CC(=O)NCCCN1CCOCC1)C(=O)OC(CCCCCCCC)CCCCCCCC (stereo not drawn) [VC-LC-0540] | 1.3E+08 | – |
| 39.62 | 39.6 | 0.14 | 164.2 | -10.43 | – | CCCCCCCCCCCCCCCCCCOC(=O)CCSCC(CC(=O)NCCCN1CCOCC1)C(=O)OC(CCCCCCCC)CCCCCCCC (stereo not drawn) [VC-LC-0546] | 2.54E+07 | – |
| 31.52 | 31.52 | 0.18 | 168 | -13.52 | – | CCCCCCCCCCCCCCCCOC(=O)CCSCC(CC(=O)NCCCN1CCOCC1)C(=O)OC(CCCCCCCC)CCCCCCCC (stereo not drawn) [VC-LC-0547] | 1.1E+08 | – |
| 30.22 | 30.22 | 0.17 | 145.5 | -8.82 | – | CCCCCCCCC(CCCCCCCC)OC(=O)C(CSCCC(=O)OCCCCCC(C)C)CC(=O)NCCCN1CCOCC1 (stereo not drawn) [VC-LC-0548] | 1.2E+08 | – |
| 36.38 | 36.38 | 0.27 | 194.9 | -16.95 | – | CCCCCCCCCCCCCCCCCCCCCCOC(=O)CCSCC(CC(=O)NCCCN1CCOCC1)C(=O)OC(CCCCCCCC)CCCCCCCC (stereo not drawn) [VC-LC-0549] | 2.5E+07 | – |
| 36.11 | – | 0.22 | 196.2 | -8.66 | – | CCCCCCCCCCCCC(CCCCCCCCCC)COC(=O)CCSCC(CC(=O)NCCCN1CCOCC1)C(=O)OC(CCCCCCCC)CCCCCCCC (stereo not drawn) [VC-LC-0553] | – | good transfection results |

Second part, the compound before the results:

| Compound | Encaps. efficiency (%) [1] [%] | Encaps. efficiency [1] [%] | P.D.I. [2] | Particle size/ Ø (nm) [2] [nm] | Z Potential (± D.E.) [mV] [2] [mV] | Apparent pKa [3] | Total Flux (Female BALB/c mice) [p·s^-1] | protein expression in mice (transfection results) (Female BALB/c mice; Figure 1 legend, LNPs containing RNA) |
| --- | --- | --- | --- | --- | --- | --- | --- | --- |
| CCCCCCCCC(CCCCCCCC)OC(=O)C(CSCCC(=O)OCCCCCCCC(C)C)CC(=O)NCCCn1ccnc1 (stereo not drawn) [VC-LC-0296] | 48.51 | 48.5 | 0.13 | 175.8 | -7.19 | 5.62 | 4.7E+07 | – |
| CCCCCCCCC(CCCCCCCC)OC(=O)C(CSCCC(=O)OCC(CC)CCCC)CC(=O)NCCCn1ccnc1 (stereo not drawn) [VC-LC-0297] | 46.94 | 46.9 | 0.18 | 193.3 | -11.77 | 5.80 | 2.3E+07 | – |
| CCCCCCCCCCCCOC(=O)CCSCC(CC(=O)NCCCn1ccnc1)C(=O)OC(CCCCCCCC)CCCCCCCC (stereo not drawn) [VC-LC-0298] | 59.92 | 59.92 | 0.16 | 190.5 | -13.51 | 6.06 | 7.6E+07 | – |
| CCCCCCCCOC(=O)CCSCC(CC(=O)NCCCn1ccnc1)C(=O)OC(CCCCCCCC)CCCCCCCC (stereo not drawn) [VC-LC-0307] | 43.89 | 43.9 | 0.14 | 178 | -15.15 | 6.11 | 1.47E+08 | – |
| CCCCCCCCCCC(CCCCCCCC)C(=O)NC(CCSCCC(=O)OCC(CCCCCC)CCCCCCCC)C(=O)NC1CCN(C)CC1 (stereo not drawn) [VC-LC-0557] | 77.19 | 77.2 | 0.11 | 142.5 | -6.12 | – | 4.3E+07 | – |
